Key:
[1] = system: murine memory and naive T cells; assay: Homeostatic T cell proliferation in mice (BrdU incorporation, Ki67); assay type: in vivo, mouse; conditions: murine cells, acute inhibition
Description: FIG. 11A: Acute inhibition of CDK4/6 selectively suppresses memory T cell homeostatic proliferation in mice. Mice were treated with PD0332991 (150 mg/kg by oral gavage). Proliferation of T-cells were assessed using BrdU and flow cytometry.
Animals were treated with CDK4/6 inhibitor (PD0332991, open bars) or vehicle (shaded bars) for 24 hours and euthanized. Splenocytes were isolated and stained for B and T cell markers. After gating on appropriate populations, Ki67 staining was performed as an indicator of proliferation and S-phase. Error bars show +/−SEM.
Acute, pharmacologic inhibition of CDK4/6 suppresses lymphocyte proliferation with the most pronounced effect on memory T cell homeostatic proliferation and germinal center formation in mice. To determine whether inhibiting CDK4/6 affects memory cell generation and maintenance, mice were treated with selective CDK4/6 inhibitors, PD 0332991 or an unrelated selective CDK4/6 inhibitor, 2BrIC. 2BrIC was synthesized by OTAVA Chemicals (Kiev, Ukraine) and can be prepared according to methods described in Zhu et al., J. Med. Chem. 46, 2027-2030 (2003).

[2] = system: human peripheral blood T cells (memory and naive); assay: Human peripheral blood T cell proliferation after PMA and ionomycin stimulation (BrdU, Ki-67 FACS); assay type: cell-based
Description: FIG. 13: CDK4/6 inhibitors suppress T cell proliferation upon stimulation through TCR pathway in both memory and naïve compartments. Human peripheral blood T cells were purified using Automacs by CD3 positive selection before being treated with CDK4/6 inhibitors and stimulated with PMA and Inomycin for 48 hrs. The proliferation of memory […] T cells after stimulation by PMA and Inomycin was measured by FACS staining of BrdU+ or Ki-67+ cells. The percentages of inhibition are shown, which indicates more inhibition of memory compartment than naïve compartment.
FIG. 14: CDK4/6 inhibitors suppress T cell proliferation upon stimulation through TCR pathway. […] Proliferation determined by BrdU or Ki67 incorporation. […]
FIG. 15: Changes of CD4 T cell composition after CDK4/6 inhibition. […] The memory and terminal differentiated T cell fractions as assessed by BrdU incorporation are reduced after CDK4/6 inhibition. […]
FIG. 16: Changes of CD4 T cell composition after CDK4/6 inhibition. […] The memory and terminal differentiated T cell fractions as assessed by Ki67 staining are reduced after CDK4/6 inhibition. […]
Similar results were seen using human lymphocytes. […] In FIG. 15, the effects of CDK4/6 inhibition on specific Tcell fractions is assessed, with and without TCR, showing CDK4/6 inhibition has a greater effect on proliferation of memory cells relative to naïve cells. […]

[3] = system: purified human peripheral B cells (CD19+); assay: Human B cell proliferation after anti-IgM stimulation (BrdU incorporation); assay type: cell-based
Description: FIG. 20: CDK4/6 inhibitors suppress B cell proliferation after stimulation through BCR. B cells were purified by Automacs selection of CD19+ cells. The BrdU incorporation of purified human peripheral B cells was determined after anti-IgM stimulation with or without CDK4/6 inhibitor treatment. The fraction of proliferating B cells reduced ˜10 fold after L4D inhibition. L4D=2BrIC
Similar results were seen using human lymphocytes. […] Human lymphocytes are sorted to T(CD3+) and B(CD19+) cells and treated in vitro with CDK4/6 inhibitor prior to stimulation with PMA and Inomycin (P+I)+OKT3 (Tcells) or IgM (Bcells), with proliferation assessed by BrdU uptake and Ki67y expression, and activation assessed by CD25 expression. […] In FIG. 15, the effects of CDK4/6 inhibition on specific Tcell fractions is assessed, with and without TCR, showing CDK4/6 inhibition has a greater effect on proliferation of memory cells relative to naïve cells. […] These alterations in proliferation are associated with decreased T cell activation as measured by CD25 expression.
Cohorts of wild type mice were treated with vehicle or a CDK4/6 inhibitor as in FIG. 11. […] Unstimulated mice were treated for 24 hours with PD0332991 and homeostatic B cell proliferation measured by Ki67 staining after appropriate sorting. […]

[4] = system: renal cell proliferation in female FVB wt mice; assay: EdU incorporation into whole kidney of cisplatin-treated mice (flow cytometry); assay type: in vivo, mouse; conditions: kidney single cell suspension, 72 h; cisplatin 15 mg/kg IP; PD0332991 100 mg/kg per day in chow or no drug
Description: FIG. 6: CDK4/6 inhibition blocks EdU incorporation into whole kidney in mice treated with cisplatin. […] EdU ([…]) was given IP every 24 hours prior to sacrifice. Kidneys were collected and single cell isolates were prepared and stained for EdU incorporation. Proliferation was assessed by flow cytometry. Data represents % of EdU staining in untreated, cisplatin-treated and cisplatin/PD0332991 treated cells.
[…] Proliferation was assessed by using BrdU (1 mg IP injection) every 6 hours for 24 hours prior to sacrifice or […] (0.1 mg IP) every 24 hours for 3 days prior to sacrifice.
Kidneys were harvested from mice and single cells were isolated using a gentleMACS™ tissue dissociator (Miltinyi Biotec, Bergisch Gladbach, Germany). Briefly, kidneys were cut into small pieces and placed in 10 ml collagenase (1 mg/ml) in a gentleMACS™ C tube (Miltinyi Biotec, Bergisch Gladbach, Germany). Tissue was dissociated following the manufacturer's recommendations (Miltinyi Biotec, Bergisch Gladbach, Germany). Cells were then incubated for 5 minutes in ACK buffer to lyse red blood cells, filtered and pelleted. Cells were resuspended in 4% paraformaldehyde and stored overnight at 4° C. For quantification of EdU incorporation, the cells were fixed, permeabilized, and stained with an APC EdU Flow Kit according to the manufacturer's instruction (Invitrogen Corporation, Carlsbad, Calif., United States of America). Flow cytometric analysis was performed using a CyAn ADP (Dako, Glostrup, Denmark). For each sample, a minimum of 500,000 cells was analyzed and the data were analyzed using FlowJo software (Tree Star, Inc., Ashland, Oreg., United States of America).
The kidney is relatively quiescent until challenged by a renal insult. Therefore, to determine whether renal cell proliferation was dependent on CDK4/6 activity in vivo, renal cell proliferation was stimulated by treating female FVB wt mice with cisplatin, a known nephrotoxic chemotherapeutic agent. At time 0 hr, mice were started on chow delivering PD0332991 100 mg/kg per day or standard chow with no drug. […]

Compound	homeostatic proliferation of memory vs naive T cells (BrdU incorporation, Ki67 expression) [1]	proliferation of memory vs naive T cells (BrdU incorporation, Ki67 expression) [2]	reduction of the fraction of proliferating B cells (BrdU) [3]	cells labeled with EdU [4]
O=C1NC(=O)c2c1c1c3ccccc3[nH]c1c1[nH]c3cc(Br)ccc3c21 [2BrIC, 2-bromo-12,13-dihydro-5H-indolo[2,3-a]pyrrolo[3,4]-carbazole-5,6-dione]	more significant decrease in homeostatic proliferation of memory T cells than naive T cells	more significant decrease in homeostatic proliferation of memory T cells than naive T cells	~10 fold	–
N.N.[Cl][Pt][Cl] [cisplatin]	–	–	–	approximately 17%
